Settings: Liquid

CCCC[N+]1(C)CCCC1.O=S(=O)([N-]S(=O)(=O)C(F)(F)F)C(F)(F)F
Settings	mass density [kg/m3]
293.49 K, 101.33 kPa	1398
293.5 K, 10000 kPa	1404
293.5 K, 20000 kPa	1409.8
293.5 K, 30000 kPa	1415.5
293.5 K, 40000 kPa	1421
293.51 K, 1000 kPa	1398.6
293.51 K, 5000 kPa	1401
302.66 K, 101.33 kPa	1390.1
312.62 K, 101.33 kPa	1381.5
322.31 K, 10000 kPa	1379.7
322.31 K, 20000 kPa	1386
322.31 K, 40000 kPa	1398.2
322.32 K, 5000 kPa	1376.4
322.32 K, 30000 kPa	1392.2
322.33 K, 1000 kPa	1373.8
322.35 K, 101.33 kPa	1373.2
332.63 K, 101.33 kPa	1364.3
342.54 K, 101.33 kPa	1355.9
352.31 K, 20000 kPa	1361.5
352.31 K, 40000 kPa	1374.5
352.32 K, 101.33 kPa	1347.5
352.32 K, 10000 kPa	1354.5
352.33 K, 5000 kPa	1351
352.33 K, 30000 kPa	1368.1
352.35 K, 1000 kPa	1348.1
373.31 K, 5000 kPa	1333.2
373.31 K, 30000 kPa	1351.3
373.32 K, 1000 kPa	1330.1
373.33 K, 101.33 kPa	1329.5
373.33 K, 10000 kPa	1337
373.34 K, 20000 kPa	1344.2
373.34 K, 40000 kPa	1358
391.26 K, 1000 kPa	1314.9
391.29 K, 10000 kPa	1322
391.29 K, 30000 kPa	1337
391.3 K, 101.33 kPa	1314.1
391.3 K, 5000 kPa	1318.1
391.32 K, 20000 kPa	1329.6
391.32 K, 40000 kPa	1344
414.93 K, 101.33 kPa	1293.9
414.93 K, 5000 kPa	1298.1
414.93 K, 10000 kPa	1302.4
414.93 K, 20000 kPa	1310.5
414.93 K, 30000 kPa	1318.1
414.93 K, 40000 kPa	1325.6
414.94 K, 1000 kPa	1294.7

CCCC[N+](C)(C)C.O=S(=O)([N-]S(=O)(=O)C(F)(F)F)C(F)(F)F [butyltrimethylammonium bis(trifluoromethylsulfonyl)imide]
Settings	mass density [kg/m3]
293.48 K, 101.33 kPa	1396.3
293.48 K, 1000 kPa	1396.8
293.49 K, 5000 kPa	1398.8
293.5 K, 40000 kPa	1416.7
293.51 K, 10000 kPa	1401.4
293.51 K, 20000 kPa	1406.6
293.51 K, 30000 kPa	1411.7
302.84 K, 101.33 kPa	1387.9
312.82 K, 101.33 kPa	1379
322.29 K, 5000 kPa	1373.5
322.31 K, 20000 kPa	1382.2
322.32 K, 10000 kPa	1376.4
322.32 K, 40000 kPa	1393.2
322.33 K, 101.33 kPa	1370.5
322.33 K, 30000 kPa	1387.7
322.34 K, 1000 kPa	1371.1
332.75 K, 101.33 kPa	1361.3
342.67 K, 101.33 kPa	1352.5
352.27 K, 20000 kPa	1356.9
352.29 K, 10000 kPa	1350.5
352.3 K, 5000 kPa	1347.3
352.32 K, 40000 kPa	1369.1
352.34 K, 30000 kPa	1363
352.36 K, 101.33 kPa	1343.9
352.36 K, 1000 kPa	1344.6
373.28 K, 5000 kPa	1328.9
373.3 K, 10000 kPa	1332.4
373.3 K, 20000 kPa	1339.2
373.31 K, 101.33 kPa	1325.5
373.31 K, 30000 kPa	1345.8
373.33 K, 1000 kPa	1326.2
373.35 K, 40000 kPa	1352.3
391.25 K, 30000 kPa	1331.2
391.26 K, 10000 kPa	1316.9
391.27 K, 1000 kPa	1310.5
391.28 K, 101.33 kPa	1309.7
391.28 K, 20000 kPa	1324.2
391.31 K, 5000 kPa	1313.1
391.31 K, 40000 kPa	1338.1
414.89 K, 30000 kPa	1312.1
414.92 K, 40000 kPa	1319.5
414.93 K, 101.33 kPa	1288.6
414.94 K, 5000 kPa	1292.5
414.94 K, 10000 kPa	1296.6
414.94 K, 20000 kPa	1304.5
414.95 K, 1000 kPa	1289.4

From the NIST ThermoML archive (doi:10.1021/je8002817)
